From patent publication US11071788B2, “Antibody drug conjugates of kinesin spindel protein (KSP) inhibitors with antiB7H3-antibodies” (BAYER PHARMA AKTIENGESELLSCHAFT, priority 2015, dated 2021) come the findings set out here.

One test concerns NCI-H292. The test is described as follows: Cytotoxicity MTT assay, NCI-H292. The test is classed as cell-based, human. The text has this: (§1) Table 2 below lists the IC50 values of representative working examples from the assay described and the corresponding cytotoxicity data (MTT assay).
For orientation: Tetrazolium dyes change colour on reduction, which living cells bring about.

The next test deals with KPL4. The test is described as follows: Cytotoxicity MTT assay, KPL4. The test is classed as cell-based.
Excerpt: as §1

The mark [1] stands for this setting: Homo sapiens, NCI-H292, MTT assay.

Where a name gives a salt, the structure may show the parent alone.

Broadly, the IC50 is the concentration that gives 50% inhibition. For `CC(C)(C)[C@H](c1cc(-c2cc(F)ccc2F)cn1Cc1ccccc1)N(CC[C@H](N)C(=O)NCCNC(=O)CSC[C@H](N)C(=O)O)C(=O)CO` [Example M7, S-(2-{[2-({(2S)-2-Amino-4-[{(1R)-1-[1-benzyl-4-(2,5-difluorophenyl)-1H-pyrrol-2-yl]-2,2-dimethylpropyl}(glycoloyl)amino]butanoyl}amino)ethyl]amino}-2-oxoethyl)-L-cysteine/trifluoroacetic acid (1:1)], the IC50 with NCI-H292 (setting [1]) stood at 22.2 nM; in the test on KPL4 (KPL4, MTT assay), 92.5 nM.

Regarding `CC(C)(C)[C@H](c1cc(-c2cc(F)ccc2F)cn1Cc1ccccc1)N(CC[C@H](N)C(=O)NCCNC(=O)CNC(=O)CC(SC[C@H](N)C(=O)O)C(=O)O)C(=O)CO` (single isomer, unassigned) [Example M13], the half-inhibitory concentration (IC50) in the test on NCI-H292 (setting [1]) was 152 nM; in the test on KPL4 (KPL4, MTT assay), 169 nM.

Take `CC(C)(C)[C@H](c1cc(-c2cc(F)ccc2F)cn1Cc1ccccc1)N(CC[C@H](N)C(=O)NCCNC(=O)CNC(=O)C(CC(=O)O)SC[C@H](N)C(=O)O)C(=O)CO` (mixture of isomers) [Example M27, 4-[(2-{[2-({(2S)-2-Amino-4-[{(1R)-1-[1-benzyl-4-(2,5-difluorophenyl)-1H-pyrrol-2-yl]-2,2-dimethylpropyl}(glycoloyl)amino]butanoyl}amino)ethyl]amino}-2-oxoethyl)amino]-3-{[(2R)-2-amino-2-carboxyethyl]sulfanyl}-4-oxobutanoic acid-trifluoroacetic acid (1:1)]: the IC50 in the test on NCI-H292 (setting [1]) is 276 nM.

In the test with NCI-H292 (setting [1]), `CC(C)(C)[C@H](c1cc(-c2cc(F)ccc2F)cn1Cc1ccccc1)N(CCCN)C(=O)CSC[C@H](NC(=O)CCC(=O)O)C(=O)O` [Example M12, 4-{[(1R)-2-({2-[(3-Aminopropyl) {(1R)-1-[1-benzyl-4-(2,5-difluorophenyl)-1H-pyrrol-2-yl]-2,2-dimethylpropyl}amino]-2-oxoethyl}sulphanyl)-1-carboxyethyl]amino}-4-oxobutanoic acid/trifluoroacetic acid (1:1)] displayed an IC50 of 33 nM.

Turning to `CC(C)(C)[C@H](c1cc(-c2cc(F)ccc2F)cn1Cc1ccccc1)N(CC[C@H](N)C(=O)NCCOCCN1C(=O)CC(SC[C@H](N)C(=O)O)C1=O)C(=O)CO` (stereo partly drawn) [Example M4, S-(1-{2-[2-({(2S)-2-Amino-4-[{(1R)-1-[1-benzyl-4-(2,5-difluorophenyl)-1H-pyrrol-2-yl]-2,2-dimethylpropyl}(glycoloyl)amino]butanoyl}amino)ethoxy]ethyl}-2,5-dioxopyrrolidin-3-yl)-L-cysteine/trifluoroacetic acid (1:1)], the IC50 amounted to 44.3 nM in the test with NCI-H292 (setting [1]) and 176 nM in the test with KPL4 (KPL4, MTT assay).

With `CC(C)(C)[C@H](c1cc(-c2cc(F)ccc2F)cn1Cc1ccccc1)N(CCCN)C(=O)CO` [Example M9, N-(3-Aminopropyl)-N-{(1R)-1-[1-benzyl-4-(2,5-difluorophenyl)-1H-pyrrol-2-yl]-2,2-dimethylpropyl}-2-hydroxyacetamide], the IC50 in the test on NCI-H292 (Homo sapiens, NCI-H292) worked out at 0.774 nM; with KPL4 (KPL4), 0.257 nM.

In the case of `CC(C)(C)[C@H](c1cc(-c2cc(F)ccc2F)cn1Cc1ccccc1)N(CC[C@H](N)C(=O)NCCNC(=O)CNC(=O)C(CC(=O)O)SC[C@H](N)C(=O)O)C(=O)CO` (single isomer, unassigned) [Example M15], the half-maximal inhibitory concentration (IC50) in the test with NCI-H292 (setting [1]) was 133 nM; with KPL4 (KPL4, MTT assay) it was 169 nM.

As to `CC(C)(C)[C@H](c1cc(-c2cc(F)ccc2F)cn1Cc1ccccc1)N(CC[C@H](N)C(=O)NCCC(=O)N[C@@H](CCC(=O)O)C(=O)O)C(=O)CO` [Example M23, N-{(2S)-2-Amino-4-[{(1R)-1-[1-benzyl-4-(2,5-difluorophenyl)-1H-pyrrol-2-yl]-2,2-dimethylpropyl}(glycoloyl)amino]butanoyl}-beta-alanyl-L-glutamic acid-trifluoroacetic acid (1.1)], the IC50 was 500 nM in the test on NCI-H292 (setting [1]) and 500 nM with KPL4 (KPL4, MTT assay).

With `CC(C)(C)[C@H](c1cc(-c2cc(F)ccc2F)cn1Cc1ccccc1)N(CC[C@H](N)C(=O)NCCNC(=O)CNC(=O)CC(SC[C@H](N)C(=O)O)C(=O)O)C(=O)CO` (single isomer, unassigned) [Example M14], the 50% inhibitory concentration (IC50) with NCI-H292 (MTT assay) was 174 nM; in the test with KPL4 (MTT assay) it was 182 nM.

In the test with NCI-H292 (setting [1]), `CC(C)(C)[C@H](c1cc(-c2cc(F)ccc2F)cn1Cc1ccccc1)N(CC[C@H](N)C(=O)NCCNC(=O)CC[C@H](N)C(=O)O)C(=O)CO` [Example M18, N-[2-({(2S)-2-Amino-4-[{(1R)-1-[1-benzyl-4-(2,5-difluorophenyl)-1H-pyrrol-2-yl]-2,2-dimethylpropyl}(glycoloyl)amino]butanoyl}amino)ethyl]-L-glutamine/trifluoroacetic acid (1.1)] came in with an IC50 of 35.5 nM.

`CC(C)(C)[C@H](c1cc(-c2cc(F)ccc2F)cn1Cc1ccccc1)N(CC[C@H](N)C(=O)NCCC(=O)NCCCC[C@H](N)C(=O)O)C(=O)CO` [Example M19, N^6—(N-{(2S)-2-Amino-4-[{(1R)-1-[1-benzyl-4-(2,5-difluorophenyl)-1H-pyrrol-2-yl]-2,2-dimethylpropyl}(glycoloyl)amino]butanoyl}-beta-alanyl)-L-lysine/trifluoroacetic acid (1:1)] yielded a half-maximal inhibitory concentration (IC50) in the test with NCI-H292 (setting [1]) of 121 nM.

With `CC(C)(C)[C@H](c1cc(-c2cc(F)ccc2F)cn1Cc1ccccc1)N(CC[C@H](N)C(=O)NCCNC(=O)CNC(=O)C(CC(=O)O)SC[C@H](N)C(=O)O)C(=O)CO` (single isomer, unassigned) [Example M16], the 50% inhibitory concentration (IC50) in the test on NCI-H292 (setting [1]) turned out to be 143 nM; in the test on KPL4 (KPL4, MTT assay), 195 nM.

Consider `CC(C)(C)[C@H](c1cc(-c2cc(F)ccc2F)cn1Cc1ccccc1)N(CC[C@H](N)C(=O)NCCC(=O)N[C@H](CCC(=O)O)C(=O)O)C(=O)CO` [Example M24, N-{(2S)-2-Amino-4-[{(1R)-1-[1-benzyl-4-(2,5-difluorophenyl)-1H-pyrrol-2-yl]-2,2-dimethylpropyl}(glycoloyl)amino]butanoyl}-beta-alanyl-D-glutamic acid-trifluoroacetic acid], for which the concentration for half-maximal inhibition (IC50) with NCI-H292 (setting [1]) was found to be 167 nM; in the test with KPL4 (KPL4, MTT assay), 500 nM.

Turning to `CC(C)(C)[C@H](c1cc(-c2cc(F)ccc2F)cn1Cc1ccccc1)N(CC[C@H](N)C(=O)O)C(=O)CO` [Example M17, (2S)-2-Amino-4-[{(1R)-1-[1-benzyl-4-(2,5-difluorophenyl)-1H-pyrrol-2-yl]-2,2-dimethylpropyl}(glycoloyl)amino]butanoic acid hydrochloride (1.1)], it took 7.35 nM to reach half-maximal inhibition in the test with NCI-H292 (setting [1]) (IC50).

On to `CC(C)(C)[C@H](c1cc(-c2cc(F)ccc2F)cn1Cc1ccccc1)N(CC[C@H](N)C(=O)NCCNC(=O)CN1C(=O)CC(SC[C@H](N)C(=O)O)C1=O)C(=O)CO` (stereo partly drawn) [Example M1, S-[1-(2-{[2-({(2S)-2-Amino-4-[{(1R)-1-[1-benzyl-4-(2,5-difluorophenyl)-1H-pyrrol-2-yl]-2,2-dimethylpropyl}(glycoloyl)amino]butanoyl}amino)ethyl]amino}-2-oxoethyl)-2,5-dioxopyrrolidin-3-yl]-L-cysteine/trifluoroacetic acid (1:1)], for which the IC50 with NCI-H292 (setting [1]) worked out at 500 nM; in the test on KPL4 (KPL4, MTT assay), 500 nM.

`CC(C)(C)[C@H](c1cc(-c2cc(F)ccc2F)cn1Cc1ccccc1)N(CCCN)C(=O)CSC[C@H](N)C(=O)O` [Example M11, S-{2-[(3-Aminopropyl){(1R)-1-[1-benzyl-4-(2,5-difluorophenyl)-1H-pyrrol-2-yl]-2,2-dimethyl-propyl}amino]-2-oxoethyl}-L-cysteine/trifluoroacetic acid (1:2)] came in with an IC50 with NCI-H292 (setting [1]) of 0.0432 nM.
